The results in this text go back to patent US5298496A (Chinoin Gyogyszer- ES Vegyeszeti Termekek Gyara Rt., priority 1990, dated 1994).

Data set [1] can be described thus: UV spectrum shift of dilute aqueous SIN 1 solution (about 10 μg/ml) with cyclodextrins, diffuse lighting, room temperature. The data set is classed as physicochemical. The following applies: for efficiency sequence concluded from the UV spectrum shift: stabilizing effect on SIN 1, ranking in words. The protocol: The solutions were stored at room temperature (20°-22° C.) in diffuse lighting and in certain periods (daily) the UV spectrum of the solutions were registered in the interval between 220-350 nm. As a control only the aqueous solution, and the 0,05N hydrochloric acid solution were used respectively. […] The pH values of the applied cyclodextrin solutions of greatest concentration differed only within ±0.2 unit from the pH value of distilled water.
The decomposition hindering, slow down effect of DIMEB (2,6-di-O-methyl-β-cyclodextrin) is definite too. In the presence of 20 mg/ml DIMEB the spectrum of the solution has shown only a shift within 1 nm after a 6 day storage. We also tested the stabilizing effect of TRIMEB (2,3,6-tri-O-methyl-β-cyclodextrin), of γ-CO, β-CO and of hydroxypropyl-β-CO. The efficiency sequence concluded from the UV spectrum shift was as follows: […]

A short description of data set [2]: Transformation SIN 1→SIN 1A→SIN 1C in the presence of cyclodextrins in 0.02M acetate buffer pH 5.5 (HPLC). In kind it is physicochemical. From the text: (The SIN 1A was detected by HPLC)
The test system of a further data set is rats. Put plainly: Cardioprotective activity on rats, p.o. The data set is classed as in vivo.
A short description of data set [3]: Change of λ max of SIN 1 with time in phosphate buffers of pH 6.4, 7.0 and 7.6 with and without CDPSI (UV spectrophotometry). The data set is classed as physicochemical. Conditions: for λ max.: 1 mg/ml SIN 1, +CDPSI 20 mg/ml.
Data set [4] in a line: Thin-layer chromatography of SIN 1 decomposition with and without CDPSI. In kind it is physicochemical. Conditions: 1 day of storage. On the procedure:
In such a concentration range spectrophotometric measurement dose not give a descriptive picture. For this reason the decomposition degree was determined by thin-layer chromatography in the following way: From the solutions 10 μl were dropwise added on a Kieselgel 60 F254 plate (10×10 cm, Merck). Running mixture: cyclohexane:ethyl-acetate in a ratio of 1:1. The running tub was let for 30 minutes to saturation. On the plate also SIN 1C reference solution was dropwise added. On the dropping spot the plate was dried in a cold air flow protected from light and it was let to run up to a […] height. During the running period the running tub was put on a dark place. After evaporation of the solvent the plate was evaluated visually in UV light at 254 nm.

Data set [5] deals with potassium depolarized strips. Put plainly: Relaxing effect on potassium depolarized strips.
Data set [6] is described as follows: HPLC decomposition test of SIN 1 in pH 7 phosphate buffer, 4 days. The data set is classed as physicochemical. On the procedure: (§1) The quantitive measurement of the decomposition degree was carried out by the HPLC method too.
(§2) HPPLC measurement circumstances to the separation of SIN 1-SIN 1 C
(§3) ______________________________________
(§4) Beckman 114 M Solvent Delivery Module,
(§5) 165 Variable Wavelength Detektor, Hewlett-Packard
(§6) Column: Ultrasphere ODS analytical column […],
(§7) Eluent: 0.05 M sodium acetate:
(§8) flowing rate: 1.0 ml/min.
(§9) chart speed: 0.5 cm/min.
(§10) retention times: tR SIN1: 2.9 min.
2. The test was carried out in a pH 7 phosphate buffer too, choosing similar concentration circumstances.
The chromatograms obtained after 4 days storage were evaluated.

Data set [7] can be described thus: HPLC decomposition test of SIN 1 in pH 6.3 phosphate buffer, 5 weeks. The data set is classed as physicochemical. The following applies: room temperature, protected from light, complex in pH 6.3 phosphate buffer with 50 mg/ml CDPSI, control in distilled water. The protocol: as §1, §2, §3, §4, §5, §6, §7, §8, §9, §10
1. […] Complex was formed with 50 mg/ml (100 fold quantity) of CDPSI. After storage of 5 weeks the HPLC chromatograms were evaluated.

Data set [8] can be described thus: Membrane permeation test, diffusion of SIN 1 through Visking type cellophane membrane. Conditions: SIN 1 alone, 1 mg/ml, 37°±1° C. The data set is classed as physicochemical. The protocol:
Visking type cellophane membrane (average pore diameter 24 Angstroms) was used. […] The solutions were stirred by magnetic stirrers and were kept at 37°±1° C. […] The test was repeated in the presence of different cyclodextrins at different concentrations in the donor cell compartment.

Data set [9] in a line: Hydrolytic decomposition of SIN 1 to SIN 1C as function of pH (literature / background). In kind it is physicochemical. The following applies: diffused lighting. On the procedure: It can be generally said that the sydnonimine derivatives are sensitive to extreme pH values, and are decomposed quickly. […] The process is strictly pH dependent, e.g. to achieve a decomposition of 10% (SIN 1C) 53 sec. at a pH value of 8, 15 hours at a pH of 6, 67 days at a pH of 4, and 13 years at a pH of 1-2 are necessary. (Chem. Pharm. Bull. 19/6 1079, 1971). […] The decomposition can be followed from the UV spectrum directly.

[10] abbreviates: 4 days, 0,5 mg/ml SIN 1, 50 mg/ml CDPSI.

`COC[C@H]1O[C@@H]2O[C@H]3[C@H](OC)[C@@H](OC)[C@@H](O[C@H]4[C@H](OC)[C@@H](OC)[C@@H](O[C@H]5[C@H](OC)[C@@H](OC)[C@@H](O[C@H]6[C@H](OC)[C@@H](OC)[C@@H](O[C@H]7[C@H](OC)[C@@H](OC)[C@@H](O[C@H]8[C@H](OC)[C@@H](OC)[C@@H](O[C@H]1[C@H](OC)[C@H]2OC)O[C@@H]8COC)O[C@@H]7COC)O[C@@H]6COC)O[C@@H]5COC)O[C@@H]4COC)O[C@@H]3COC` [TRIMEB, 2,3,6-tri-O-methyl-β-cyclodextrin]: the “efficiency sequence concluded from the UV spectrum shift” value in [1] is given as “CDPSI>DIMEB>TRIMEB>βCO≥HPβCO”.

`OC[C@H]1O[C@@H]2O[C@H]3[C@H](O)[C@@H](O)[C@@H](O[C@H]4[C@H](O)[C@@H](O)[C@@H](O[C@H]5[C@H](O)[C@@H](O)[C@@H](O[C@H]6[C@H](O)[C@@H](O)[C@@H](O[C@H]7[C@H](O)[C@@H](O)[C@@H](O[C@H]8[C@H](O)[C@@H](O)[C@@H](O[C@H]1[C@H](O)[C@H]2O)O[C@@H]8CO)O[C@@H]7CO)O[C@@H]6CO)O[C@@H]5CO)O[C@@H]4CO)O[C@@H]3CO` [βCO, β-cyclodextrin]: in data set [2], the “SIN 1A found vs control” value was “more than 7 fold”. Also, the “efficiency sequence concluded from the UV spectrum shift” value in [1] is reported as “CDPSI>DIMEB>TRIMEB>βCO≥HPβCO”.

As for `COC[C@H]1O[C@@H]2O[C@H]3[C@H](O)[C@@H](OC)[C@@H](O[C@H]4[C@H](O)[C@@H](OC)[C@@H](O[C@H]5[C@H](O)[C@@H](OC)[C@@H](O[C@H]6[C@H](O)[C@@H](OC)[C@@H](O[C@H]7[C@H](O)[C@@H](OC)[C@@H](O[C@H]8[C@H](O)[C@@H](OC)[C@@H](O[C@H]1[C@H](O)[C@H]2OC)O[C@@H]8COC)O[C@@H]7COC)O[C@@H]6COC)O[C@@H]5COC)O[C@@H]4COC)O[C@@H]3COC` [DIMEB, 2,6-di-O-methyl-β-cyclodextrin], the “shift of the UV spectrum” value in data set [1] (6 day storage, 20 mg/ml DIMEB) was no more than 1 nm. Besides, the “efficiency sequence concluded from the UV spectrum shift” value in data set [1] is “CDPSI>DIMEB>TRIMEB>βCO≥HPβCO”.

With `N=c1c[n+](N2CCOCC2)[n-]o1` [SIN 1, 3-morpholino-sydnonimine], the “time to practically complete transformation into SIN 1C” value in [1] (aqueous solution without cyclodextrin, stored similarly) lay within 2 to 3 days. For the same molecule, the “decomposition of control solution” value in data set [1] (distilled water, 1 week, without CDPSI, in words) is reported as “practically decomposed”. Besides, the activity in words result with rats (1 mg/kg) is “does not exert an activity”. In addition, the cardioprotective activity with rats (1 mg/kg (complex: same active ingredient)) came to 11%. The Δλ in data set [3] (buffer pH 6,4, after 6 days) turned out to be 12 nm. Further, the λ max. in data set [3] (pH 6.4, 0 days (at preparation)) came out at 291.5 nm; in [3] (pH 6.4, 1 day) it was 289.0 nm; in data set [3] (pH 6.4, 4 days), 284.9 nm; in data set [3] (pH 6.4, 6 days) it was 279.8 nm; in [3] (pH 7.0, 0 days (at preparation)) it was 290.6 nm; in data set [3] (pH 7.0, 1 day) it was 280.4 nm. In addition, the λ max. was 277.3 nm in [3] (pH 7.0, 6 days); 291.2 nm in data set [3] (pH 7.6, 0 days (at preparation)); 276.4 nm in data set [3] (pH 7.6, 1 day); 277.6 nm in data set [3] (pH 7.6, 6 days). Also, the “unchanged SIN 1 (TLC)” value is “still perceptible” in data set [4] (pH 7 buffer) and “practically no longer detectable” in data set [4] (pH 7.6 buffer). The “T/2 (duration of action)” value in data set [5] (1 or 2 μM) turned out to be 47 min. Moreover, the “T/max (time of maximal relaxation)” value in data set [5] (after administration, 1 or 2 μM) is recorded as 18 min. Besides, in [5] (read-out: maximal relaxation of sustained contraction), the inhibition at 1 µM was determined as 58%. Further, the “pH value of the solutions after storage” value in data set [6] (4 days) is 6.57. The “Active ingredient content: SIN 1” value in data set [6] (setting [10]) was 0.041 mg/mL; in [7], 0,016. Moreover, the “Active ingredient content: SIN 1C” value in data set [6] (setting [10]) stood at 0.125 mg/mL. Further, in data set [8], the “T 50% (diffusion half life of SIN 1)” value worked out at 54 min. Also, the “time of decomposition in diluted aqueous solution” value in data set [9] was in the range of 1 to 3 days.
